The numbers were not newly measured in patent publication US4556678A (Key Pharmaceuticals, Inc., priority 1982, dated 1985), which cites them from elsewhere.

[1] abbreviates: oral formulations currently in use.

Regarding `CC(C)NCC(O)COc1cccc2ccccc12` (stereo not drawn) [Propranolol, propranolol], under “administration with food”, the bioavailability result is reported as “enhance its bioavailability”. Moreover, under setting [1], the “absorption from the gastrointestinal tract” value is recorded as “almost completely absorbed” and the liver metabolism entry is “subject to rapid liver metabolism”.
